{
  "source": "patent US20230285402A1",
  "about": "“Compositions and Methods of Modulating Short-Chain Dehydrogenase Activity” (BOARD OF REGENTS OF THE UNIVERSITY OF TEXAS SYSTEM, priority 2013, published 2023)",
  "key": {"mice": {"test_system": "mice", "test": "Bone marrow transplant after 11Gy, SW033291 5 mg/kg IP twice daily: survival and blood/marrow counts", "assay_type": "in vivo, mouse", "conditions": "day 18 after transplant"}, "C57BL/6J mice": {"test_system": "C57BL/6J mice", "test": "Liver regeneration after partial hepatectomy, C57BL/6J mice, SW033291 5 mg/kg IP", "assay_type": "in vivo", "conditions": "5 mg/kg IP bid; one mouse each"}, "A549 cells [1]": {"test_system": "A549 cells", "test": "PGE2 in medium of IL1-beta stimulated A549 cells", "assay_type": "cell-based"}, "bone marrow": {"test_system": "bone marrow", "test": "Hematopoietic colonies from wild-type mouse bone marrow treated ex vivo", "assay_type": "cell-based", "conditions": "0.5 μM, ex vivo on ice 2 hours", "from_the_text": "Treated marrow is again then plated into methylcellulose for counting of hematopoietic colonies."}, "C57BL/6J female mice": {"test_system": "C57BL/6J female mice", "test": "Survival of mice after whole body irradiation, SW033291 5 mg/kg IP", "assay_type": "in vivo, mouse", "conditions": "for number of mice surviving: 9 Gy"}, "CXCL12": {"test_system": "CXCL12", "test": "Gene expression in bone marrow cells of treated mice: CXCL12", "assay_type": "in vivo, mouse", "conditions": "10 mg/kg IP twice daily, 5 doses", "procedure": "(§1) 2 hours following the last dose bone marrow is harvested and sorted into SKL marked cells that are hematopoietic stem cell enriched and into CD45(−) cells that are bone marrow stroma cells. RNA was extracted and gene expression determined relative to levels in mice injected with vehicle control."}, "NSG mice": {"test_system": "NSG mice", "test": "Homing of CFSE labeled human umbilical cord blood buffy coat cells in NSG mice", "conditions": "in vivo", "procedure": "FIG. 93 illustrates a schema of an experiment in which immune deficient NSG mice are lethally irradiated (IR) and 12 hours later receive a transplant with CFSE dye labeled buffy coat cells from human umbilical cord blood (UCB), and number of transplanted cells that home and survive in the bone marrow of the recipient mice are then determined by FACS at 16 hours post-transplant. In different arms of the experiment mice are treated with vehicle or with SW033291. Drugs are administered following radiation, following the transplant, and again at 8 hours after the transplant."}, "SCF": {"test_system": "SCF", "test": "Gene expression in bone marrow cells of treated mice: SCF", "assay_type": "in vivo, mouse", "conditions": "10 mg/kg IP twice daily, 5 doses", "procedure": "as §1"}, "15-PGDH mRNA": {"test_system": "15-PGDH mRNA", "test": "15-PGDH mRNA by real-time PCR in colon cancer cell lines", "assay_type": "cell-based", "from_the_text": "In these studies parental cell lines (not containing the 15-PGDH-luciferase reporter) are employed."}, "FVB male mice": {"test_system": "FVB male mice", "test": "Dextran sodium sulfate (DSS) induced colitis, FVB male mice, SW033291 5 mg/kg IP twice daily", "assay_type": "in vivo, mouse"}, "[2]": {"test": "21 day toxicity study in FVB mice, daily weights", "assay_type": "in vivo, mouse", "conditions": "5 mg/kg IP twice daily for 21 days"}, "[3]": {"test_system": "cell numbers in a cell culture assay", "test": "Toxicity in cell culture assay (decrease of cell numbers)", "assay_type": "cell-based", "conditions": "concentration needed to decrease cell numbers", "procedure": "Time to inhibition refers to the time needed to inhibit the generation of NADH by 15-PGDH from the moment with drug is added into the reaction mix. Delta Tm refers to the shift in melting temperature of recombinant 15-PGDH in the presence of drug (with cofactor NADH also present). Concentration of Full Cell Line Reporter Induction refers to the concentration of drug that needs to be added to reporter cell line to achieve maximal induction of the 15-PGDH-luciferase gene fusion reporter cassette, as measured by luciferase assays. Hepatocyte stability refers to the half-life of compound in the presence of hepatocytes in culture. Toxicity refers to the concentration of compound needed to decrease cell numbers in a cell culture assay."}, "A549 cells [4]": {"test_system": "A549 cells", "test": "Cellular toxicity by CellTiter-Glo", "assay_type": "cell-based", "conditions": "concentrations of up to 10 μM; 24 hours", "procedure": "FIGS. 38(A-C) show assays of cellular toxicity on A549 cells at 24 hours of 15-PGDH inhibitors as assayed by CellTiter-Glo measurement."}, "[5]": {"conditions": "CD45(−) bone marrow stromal cells"}},
  "data": [
    {"smiles": "CCCC[S+]([O-])c1sc2nc(-c3cccs3)cc(-c3ccccc3)c2c1N", "note": "(centres unmarked) [SW033291, 2-(butylsulfinyl)-4-phenyl-6-(thiophen-2-yl)thieno[2,3-b]pyridin-3-amine]", "values": [
      {"measurement": "lymphocyte count vs control", "setting": "mice", "result": "significantly higher"},
      {"measurement": "platelet counts vs control", "setting": "mice", "result": "significantly higher platelet counts"},
      {"measurement": "total white count vs control", "setting": "mice", "result": "significantly higher total white count"},
      {"measurement": "neutrophil count", "setting": "mice; control 365", "result": 835},
      {"measurement": "mean SKL marked bone marrow cells", "setting": "mice; control 967", "result": 4127},
      {"measurement": "serum ALT values vs control", "setting": "C57BL/6J mice", "result": "lower"},
      {"measurement": "rank of PGE2 level in medium", "setting": "A549 cells [1]; 100 nM drug", "result": "next highest level of PGE2"},
      {"measurement": "15-PGDH activity in cells as reflected in PGE2 levels", "setting": "A549 cells [1]; IL1-beta 23 hours, compound for last 5 hours", "result": "clear inhibition of 15-PGDH activity"},
      {"measurement": "highest PGE2 level in medium", "setting": "A549 cells [1]; IL-1β 16 h, then compound 8 h", "result": 3000, "unit": "pg/mL"},
      {"measurement": "increase in number of bone marrow derived colonies", "setting": "bone marrow", "result": "approximately 50%"},
      {"measurement": "longer survival on average than vehicle control", "setting": "C57BL/6J female mice; 11Gy, any of the three dosing schedules", "result": "1 to 2", "unit": "days"},
      {"measurement": "longer survival than vehicle control", "setting": "C57BL/6J female mice; 11Gy, daily for 7 doses", "result": 48, "unit": "h"},
      {"measurement": "number of mice surviving", "setting": "C57BL/6J female mice; Day 0, daily for 7 doses", "result": 3},
      {"measurement": "number of mice surviving", "setting": "C57BL/6J female mice; Day 5, daily for 7 doses", "result": 3},
      {"measurement": "number of mice surviving", "setting": "C57BL/6J female mice; Day 6, daily for 7 doses", "result": 3},
      {"measurement": "number of mice surviving", "setting": "C57BL/6J female mice; Day 7, daily for 7 doses", "result": 3},
      {"measurement": "number of mice surviving", "setting": "C57BL/6J female mice; Day 8, daily for 7 doses", "result": 3},
      {"measurement": "number of mice surviving", "setting": "C57BL/6J female mice; Day 9, daily for 7 doses", "result": 3},
      {"measurement": "number of mice surviving", "setting": "C57BL/6J female mice; Day 10, daily for 7 doses", "result": 3},
      {"measurement": "number of mice surviving", "setting": "C57BL/6J female mice; Day 12, daily for 7 doses", "result": 2},
      {"measurement": "number of mice surviving", "setting": "C57BL/6J female mice; Day 13, daily for 7 doses", "result": 2},
      {"measurement": "number of mice surviving", "setting": "C57BL/6J female mice; Day 14, daily for 7 doses", "result": 1},
      {"measurement": "number of mice surviving", "setting": "C57BL/6J female mice; Day 15, daily for 7 doses", "result": 0},
      {"measurement": "appearance of mice", "setting": "C57BL/6J female mice; Day 25, 7 Gy, wrapped cell reads Looks Healthy", "result": "Looks"},
      {"measurement": "induction of CXCL12", "setting": "CXCL12; [5]", "result": "greater than 4 fold"},
      {"measurement": "induction in RNA expression of CXCL12", "setting": "CXCL12; bone marrow SKL cells", "result": 3, "unit": "fold"},
      {"measurement": "increase of homed human cells in recipient mouse bone marrow", "setting": "NSG mice", "result": "~2", "unit": "fold"},
      {"measurement": "induction of SCF", "setting": "SCF; [5]", "result": "greater than 4 fold"},
      {"measurement": "induction in RNA expression of SCF", "setting": "SCF; bone marrow SKL cells", "result": 3, "unit": "fold"},
      {"measurement": "15-PGDH mRNA", "setting": "15-PGDH mRNA; V503 cells", "result": "slight increase in 15-PGDH mRNA"},
      {"measurement": "15-PGDH mRNA levels", "setting": "15-PGDH mRNA; treated colon cancer cell lines", "result": "do not in general alter 15-PGDH mRNA levels"},
      {"measurement": "change from baseline weight vs control", "setting": "FVB male mice; 22 days of study", "result": "greater weight at all time points"},
      {"measurement": "Colon length", "setting": "FVB male mice; Baseline", "result": "8.4 ± 0.2", "unit": "cm"},
      {"measurement": "Wt @ sacrifice", "setting": "FVB male mice; Baseline", "result": "25.9 ± 0.7", "unit": "gm"},
      {"measurement": "Colon length", "setting": "FVB male mice; Day 8", "result": "6.6 ± 0.1", "unit": "cm"},
      {"measurement": "Wt @ sacrifice", "setting": "FVB male mice; Day 8", "result": "26.4 ± 0.5", "unit": "gm"},
      {"measurement": "Colon length", "setting": "FVB male mice; Day 15", "result": "7.5 ± 0.1", "unit": "cm"},
      {"measurement": "Wt @ sacrifice", "setting": "FVB male mice; Day 15", "result": "25.2 ± 0.9", "unit": "gm"},
      {"measurement": "Colon length", "setting": "FVB male mice; Day 22", "result": "8.6 ± 0.3", "unit": "cm"},
      {"measurement": "Wt @ sacrifice", "setting": "FVB male mice; Day 22", "result": "28.2 ± 0.5", "unit": "gm"},
      {"measurement": "share of ulcer formation prevented", "setting": "FVB male mice; colonoscopy days 8, 11 and 15", "result": "two-thirds"},
      {"measurement": "reduction of length of ulcerated mucosa vs control", "setting": "FVB male mice; day 15", "result": 61, "unit": "%"},
      {"measurement": "average length of ulcerated mucosa", "setting": "FVB male mice; day 15, N=6 mice, control 4.48", "result": 1.74, "unit": "mm per colon section"},
      {"measurement": "MEICS score vs control", "setting": "FVB male mice; days 8, 11 and 15", "result": "significantly less colitis activity"},
      {"measurement": "mouse weight", "setting": "[2]", "result": "no evidence for SW033291 reducing mouse weight"},
      {"measurement": "Toxicity", "setting": "[3]", "result": ">10", "unit": "µM"},
      {"measurement": "effect on CellTitre-Glo levels", "setting": "A549 cells [4]", "result": "No effect"}
    ]}
  ]
}
